Experimental data reported in ChEMBL document CHEMBL5500407, “Designing Chromane Derivatives as α2A-Adrenoceptor Selective Agonists via Conformation Constraint” (J Med Chem, 2024).
Activity calls are given as the source filed them. No cut-off for these calls is given here.

Legend:
[1] = biological target: T1, Alpha-2C adrenergic receptor (Homo sapiens, UniProt P18825); test: Agonist activity at human alpha2C-adrenoceptor
T1 sequence (P18825 whole entry): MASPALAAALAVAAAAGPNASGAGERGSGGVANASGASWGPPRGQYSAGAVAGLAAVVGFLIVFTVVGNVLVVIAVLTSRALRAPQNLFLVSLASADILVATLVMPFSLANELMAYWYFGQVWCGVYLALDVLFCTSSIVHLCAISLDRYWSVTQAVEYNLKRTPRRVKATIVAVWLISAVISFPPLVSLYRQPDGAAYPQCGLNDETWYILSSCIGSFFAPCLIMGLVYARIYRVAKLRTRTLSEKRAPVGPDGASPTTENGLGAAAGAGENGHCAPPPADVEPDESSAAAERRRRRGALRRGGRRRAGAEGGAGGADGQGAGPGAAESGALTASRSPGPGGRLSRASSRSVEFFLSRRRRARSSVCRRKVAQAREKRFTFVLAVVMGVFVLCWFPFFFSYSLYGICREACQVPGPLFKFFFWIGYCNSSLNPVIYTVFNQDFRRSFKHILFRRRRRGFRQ

[2] = biological target: T2, Alpha-1B adrenergic receptor (Homo sapiens, UniProt P35368); test: Binding affinity to human alpha1B-adrenoceptor
T2 sequence (P35368 whole entry): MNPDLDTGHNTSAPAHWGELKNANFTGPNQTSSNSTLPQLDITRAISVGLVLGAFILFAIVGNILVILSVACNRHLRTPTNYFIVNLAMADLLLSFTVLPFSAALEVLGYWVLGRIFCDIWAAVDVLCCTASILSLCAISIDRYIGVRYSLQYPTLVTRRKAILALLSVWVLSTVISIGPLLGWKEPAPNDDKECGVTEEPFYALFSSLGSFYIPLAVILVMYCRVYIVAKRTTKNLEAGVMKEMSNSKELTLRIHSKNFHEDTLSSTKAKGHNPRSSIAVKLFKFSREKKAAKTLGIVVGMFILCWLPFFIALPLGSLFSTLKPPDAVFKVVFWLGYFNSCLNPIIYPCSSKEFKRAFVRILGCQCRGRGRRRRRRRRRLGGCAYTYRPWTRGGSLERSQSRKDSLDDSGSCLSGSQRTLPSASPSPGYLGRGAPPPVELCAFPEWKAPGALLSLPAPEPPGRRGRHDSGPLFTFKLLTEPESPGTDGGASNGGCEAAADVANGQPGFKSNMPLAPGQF

[3] = biological target: T3, Alpha-1D adrenergic receptor (Homo sapiens, UniProt P25100); test: Binding affinity to human alpha1D-adrenoceptor
T3 sequence (P25100 whole entry): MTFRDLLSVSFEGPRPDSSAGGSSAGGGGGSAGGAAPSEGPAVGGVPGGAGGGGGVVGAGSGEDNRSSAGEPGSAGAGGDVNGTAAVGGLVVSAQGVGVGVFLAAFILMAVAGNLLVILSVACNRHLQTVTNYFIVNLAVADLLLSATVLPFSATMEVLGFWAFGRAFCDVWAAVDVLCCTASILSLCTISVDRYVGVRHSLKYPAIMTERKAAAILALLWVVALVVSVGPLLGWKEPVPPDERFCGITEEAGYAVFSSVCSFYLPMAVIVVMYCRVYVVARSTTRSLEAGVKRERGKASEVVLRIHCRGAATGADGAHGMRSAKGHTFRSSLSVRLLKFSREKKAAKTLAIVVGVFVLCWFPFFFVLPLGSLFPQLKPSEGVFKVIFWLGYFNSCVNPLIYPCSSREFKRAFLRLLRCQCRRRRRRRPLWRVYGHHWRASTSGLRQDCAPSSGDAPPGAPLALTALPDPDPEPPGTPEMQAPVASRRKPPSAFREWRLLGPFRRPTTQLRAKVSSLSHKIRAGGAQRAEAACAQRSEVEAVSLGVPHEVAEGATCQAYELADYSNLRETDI

[4] = biological target: T4, Alpha-1A adrenergic receptor (Homo sapiens, UniProt P35348)
T4 sequence (P35348 whole entry): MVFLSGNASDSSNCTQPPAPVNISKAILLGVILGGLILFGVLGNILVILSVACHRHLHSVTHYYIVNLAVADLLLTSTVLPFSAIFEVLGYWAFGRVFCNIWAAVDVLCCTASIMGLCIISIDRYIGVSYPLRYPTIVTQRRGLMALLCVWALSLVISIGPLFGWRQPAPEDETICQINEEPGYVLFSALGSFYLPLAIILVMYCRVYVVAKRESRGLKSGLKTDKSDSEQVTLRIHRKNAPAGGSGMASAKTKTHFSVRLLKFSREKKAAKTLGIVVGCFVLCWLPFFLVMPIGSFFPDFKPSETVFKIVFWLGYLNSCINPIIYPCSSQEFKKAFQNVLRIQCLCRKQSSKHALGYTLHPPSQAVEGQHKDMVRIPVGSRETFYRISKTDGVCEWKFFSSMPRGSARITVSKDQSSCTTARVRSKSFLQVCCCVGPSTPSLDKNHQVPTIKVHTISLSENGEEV
Description: Binding affinity to human alpha1A-adrenoceptor

[5] = biological target: T1, Alpha-2C adrenergic receptor; test: Agonist activity at alpha2C-adrenoceptor (unknown origin) expressed in CHO-alpha2C-PKAcatEGFP cells assessed as increase in intracellular calcium level measured after 15 mins incubation by Micro automated microscopy; type: functional, cell-based
[6] = biological target: T4, Alpha-1A adrenergic receptor; test: Agonist activity at alpha1A-adrenoceptor (unknown origin) expressed in HEK293T cells assessed as fluorescence intensity measured after 30 mins by IP-one homogeneous time-resolved fluorescence assay; type: functional, cell-based
[7] = Metabolic stability in mouse liver microsomes assessed as elimination half life; type: ADME, Microsome
[8] = Metabolic stability in mouse liver microsomes assessed as intrinsic clearance; type: ADME, Microsome; conditions: read-out: CLH
[9] = biological target: T5, Alpha-2B adrenergic receptor (Homo sapiens, UniProt P18089); test: Agonist activity at alpha2B-adrenoceptor (unknown origin) expressed in U2OS-EGFP-NFAT2-alpha2B-AR cells assessed as increase in intracellular calcium level measured after 15 mins incubation by Micro automated microscopy; type: functional, cell-based
T5 sequence (P18089 whole entry): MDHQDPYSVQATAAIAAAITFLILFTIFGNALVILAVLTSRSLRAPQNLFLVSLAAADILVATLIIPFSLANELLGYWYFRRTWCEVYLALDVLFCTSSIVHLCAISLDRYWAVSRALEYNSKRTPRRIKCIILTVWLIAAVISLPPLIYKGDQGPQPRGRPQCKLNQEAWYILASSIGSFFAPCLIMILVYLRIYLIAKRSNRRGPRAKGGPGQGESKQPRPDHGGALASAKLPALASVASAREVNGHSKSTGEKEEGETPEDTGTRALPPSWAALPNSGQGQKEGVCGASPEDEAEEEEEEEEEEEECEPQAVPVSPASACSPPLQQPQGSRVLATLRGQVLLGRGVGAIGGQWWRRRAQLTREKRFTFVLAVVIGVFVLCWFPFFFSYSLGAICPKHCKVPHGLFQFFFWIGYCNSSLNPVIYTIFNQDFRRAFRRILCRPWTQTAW

[10] = biological target: T5, Alpha-2B adrenergic receptor; test: Agonist activity at human alpha2B-adrenoceptor
[11] = tested on: HEK293T; test: Agonist activity at alpha2A-adrenoceptor F427A mutant (unknown origin) expressed in HEK293T cells co-expressing pGloSensor-22F cAMP plasmid assessed as at 1 to 100 uM measured after 10 mins incubation by multiplate reader; type: cell-based; conditions: Homo sapiens, dose 1-100 µM
[12] = tested on: Mus musculus; test: Hypnotic activity in C57BL/6 mouse assessed as increase in loss of righting reflex (LORR) in presence of atipamezole alpha2-adrenoceptor antagonist at 0.60 mg/kg, ip; type: functional, organism-based; conditions: dose 0.6 mg/kg
[13] = tested on: Mus musculus; test: Hypnotic activity in C57BL/6 mouse assessed as increase in loss of righting reflex (LORR) in presence of ARC239 alpha2B-adrenoceptor antagonist at 0.60 mg/kg, ip; type: functional, organism-based; conditions: dose 0.6 mg/kg
[14] = tested on: HEK293T; test: Agonist activity at alpha2A-adrenoceptor D128A mutant (unknown origin) expressed in HEK293T cells co-expressing pGloSensor-22F cAMP plasmid assessed as at 0.000001 to 100 uM measured after 10 mins incubation by multiplate reader; type: cell-based; conditions: Homo sapiens, dose lower 1e-06 µM, dose upper 100.0 µM
[15] = tested on: Mus musculus; test: Hypnotic activity in C57BL/6 mouse assessed as increase in loss of righting reflex (LORR) in presence of BRL44408 alpha2A-adrenoceptor antagonist at 0.60 mg/kg, ip; type: functional, organism-based; conditions: dose 0.6 mg/kg
[16] = tested on: HEK293T; test: Agonist activity at alpha2A-adrenoceptor Y409A mutant (unknown origin) expressed in HEK293T cells co-expressing pGloSensor-22F cAMP plasmid assessed as at 0.000001 to 100 uM measured after 10 mins incubation by multiplate reader; type: cell-based; conditions: Homo sapiens, dose lower 1e-06 µM, dose upper 100.0 µM
[17] = tested on: Mus musculus; test: Hypnotic activity in C57BL/6 mouse assessed as increase in loss of righting reflex (LORR) in presence of JP1302 alpha2C-adrenoceptor antagonist at 0.60 mg/kg, ip; type: functional, organism-based; conditions: dose 0.6 mg/kg
[18] = tested on: Mus musculus; test: Hypnotic activity in ip dosed C57BL/6 mouse assessed as increase in immobility time; type: functional, organism-based
[19] = tested on: Mus musculus; test: Hypnotic activity in C57BL/6 mouse assessed as increase in induction time righting reflex (LORR) in presence of atipamezole alpha2-adrenoceptor antagonist at 0.60 mg/kg, ip; type: functional, organism-based; conditions: dose 0.6 mg/kg
[20] = biological target: T6, Alpha-2A adrenergic receptor (Homo sapiens, UniProt P08913); test: Agonist activity at human alpha2A adrenoceptor assessed as [35S]GTPgammaS binding by scintillation counting analysis; type: functional
T6 sequence (P08913 whole entry): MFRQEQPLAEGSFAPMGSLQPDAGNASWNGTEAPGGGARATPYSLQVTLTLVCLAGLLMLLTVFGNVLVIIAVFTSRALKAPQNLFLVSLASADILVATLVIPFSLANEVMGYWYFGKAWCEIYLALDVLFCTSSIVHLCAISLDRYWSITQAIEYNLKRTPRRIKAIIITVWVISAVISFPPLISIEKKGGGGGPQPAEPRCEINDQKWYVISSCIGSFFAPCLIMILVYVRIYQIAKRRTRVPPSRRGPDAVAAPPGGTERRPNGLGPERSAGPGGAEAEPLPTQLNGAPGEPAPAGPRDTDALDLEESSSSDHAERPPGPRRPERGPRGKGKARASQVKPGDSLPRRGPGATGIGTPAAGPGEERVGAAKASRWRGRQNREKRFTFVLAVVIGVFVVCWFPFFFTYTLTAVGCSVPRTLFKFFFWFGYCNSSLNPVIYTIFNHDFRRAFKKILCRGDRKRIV

[21] = tested on: Mus musculus; test: Hypnotic activity in ip dosed C57BL/6 mouse assessed as increase in loss of righting reflex (LORR)
[22] = biological target: T7, Adrenergic receptor alpha-1 (Homo sapiens, UniProt P35348+P25100+P35368); test: Binding affinity to alpha1-adrenoceptor (unknown origin); type: protein assay
T7 sequence (P35348 whole entry): T4 sequence (P35348 whole entry)
T7 sequence (P25100 whole entry): T3 sequence (P25100 whole entry)
T7 sequence (P35368 whole entry): T2 sequence (P35368 whole entry)

[23] = biological target: T8, Adrenergic receptor alpha-2 (Homo sapiens, UniProt P08913+P18825+P18089); test: Binding affinity to alpha2-adrenoceptor (unknown origin); type: protein assay
T8 sequence (P08913 whole entry): T6 sequence (P08913 whole entry)
T8 sequence (P18825 whole entry): T1 sequence (P18825 whole entry)
T8 sequence (P18089 whole entry): T5 sequence (P18089 whole entry)

[24] = Selectivity index, ratio of EC50 for alpha2A-adrenoceptor (unknown origin) to EC50 for alpha2B-adrenoceptor (unknown origin)
[25] = Selectivity index, ratio of EC50 for alpha2A-adrenoceptor (unknown origin) to EC50 for alpha1A-adrenoceptor (unknown origin)
[26] = biological target: T6, Alpha-2A adrenergic receptor
Description: Agonist activity at alpha2A-adrenoceptor (unknown origin) expressed in CHO-alpha2-AR-PKAcatEGFP cells assessed as intracellular cAMP concentration by measuring PKA translocation after 15 mins incubation by PKA redistribution assay

[27] = Selectivity index, ratio of EC50 for alpha2A-adrenoceptor (unknown origin) to EC50 for alpha2C-adrenoceptor (unknown origin)

Structure (SMILES)	EC50 [5]	EC50 [6]	half-life [7]	microsomal CLint [8]	EC50 [9]	Activity [14]	Activity [16]	Activity [18]	ED50 [21]	Activity [11]	other results
Cc1cccc([C@H](C)c2cnc[nH]2)c1C [DEXMEDETOMIDINE]	5.37 nM	13 nM	156 min	8.89 µL/min/mg	1.91 nM						EC50 [1]: 28.8 nM; Ki [2]: 9120 nM; Ki [3]: 1230 nM; Ki [4]: 1320 nM; EC50 [10]: 3.31 nM
Brc1cccc2c1OCCC2c1c[nH]cn1 (centres undefined)	21.3 nM	2.55 nM	47.8 min	29 µL/min/mg	163 nM	inactive	inactive	Dose-Dependent Effect			Activity ([11]; filed as agonist): Active; Activity [12]: inactive; Activity [13]: Active; Activity [15]: inactive; Activity [17]: Active; Activity [19]: inactive
CC(c1cccc(C2(C(F)(F)F)N=N2)c1)c1c[nH]cn1 (centres undefined)											pEC50 [20]: 6.53
Cc1cccc([C@H](C)c2c[nH]cn2)c1C [DEXMEDETOMIDINE]								Dose-Dependent Effect	0.11 mg/kg	inactive	
Cc1cccc2c1CCC2c1c[nH]cn1 (centres undefined)											pKi [22]: 7.14; pKi [23]: 8.06
Brc1cccc2c1OCC=C2c1c[nH]cn1	37.2 nM	32 nM	5.56 min	249 µL/min/mg	186 nM	inactive	inactive	Dose-Dependent Effect	1.54 mg/kg	inactive	Selectivity Index [24]: 238; Selectivity Index [25]: 41; EC50 [26]: 0.78 nM; Selectivity Index [27]: 48
